These results are taken from patent US20060046982A1, “Orthomolecular medical use of L-citrulline for capillary endothelial protection and adjacent cell protection in neurodegenerative disease” (priority 2004, published 2006).

The subject of series [1] is Human plasma Cohn fraction 1V-1 protein. The series can be described thus: Turbidimetric test of protein insolubility induced by Fenton-like reaction (ferrous sulfate + H2O2), nephelometer. It counts as biochemical. The following applies: amino acid at 400 microMol/L; 100 microMol/L ferrous sulfate + 40 microMol/L H2O2; pH 5.7-5.8; 37° Celsius, 30 minutes. As for the experimental part:
Human plasma Cohn fraction 1V-1 protein solutions (predominately alpha glycoglobulins, rich in lipid—obtained from Sigma Chemical Co.) of 40 mg/dl in saline solutions (140 NaCl mMol/L) were employed at existing pHs of 5.7-5.8 without additional confounding non-protein buffer. A nephelometer measured the intensity of reflected Tydall light. Developed turbidities were measured to quantify the insolubities of the dissolved proteins that were induced by introducing 100 microMol/L of ferrous sulfate and 40 microMol/L of H2O2 with incubations at 37° Celsius for 30 minutes. Insolubilities were standardized as the percent of maximal possible induced turbidities by comparison to similar protein solutions after mixing with the protein-precipitating agent sulfosalicylic acid at 1.5 g/dL.

Series [2] in a line: Case report: person taking L-citrulline capsules daily for 8 years. Conditions: donor one; long-term L-citrulline intake.

As to `NC(=O)CC[C@H](N)C(=O)O` [L-glutamine], the “mean inhibition of the insolubilities induced by the Fenton-like reactions” value (“mean inhibition” for short) in series [1] is reported as “did not inhibit”.

On to `N[C@@H](Cc1c[nH]cn1)C(=O)O` [L-histidine free base, L-histidine], for which the “mean inhibition” value in series [1] is 52.6%.

Take `NC(=O)NCCC[C@H](N)C(=O)O` [L-citrulline]: in series [2], the Fasting blood glucose entry was “within the normal range”, the Hematocrit was 38.5%, the blood hemoglobin came to 13.6 g/dL and the total leucocyte count is given as 6.800 /mcL. Further, in series [1], the “mean inhibition” value was “did not inhibit”.
